These results are taken from ChEMBL document CHEMBL4610061, “Identification of novel GPR81 agonist lead series for target biology evaluation” (Bioorg Med Chem Lett, 2020).

pEC50, pIC50: −log10 of the molar value. ≈ marks a conversion by molar mass, not a printed value. Calls of active or inactive are those of the source. No cut-off for these calls is given here.

The nature of data set [1]: Distribution coefficient, logD of compound at pH 7.4. The settings on record: octanol/water. It counts as physicochemical.
The target of data set [2] is T1, Hydroxycarboxylic acid receptor 1 (Homo sapiens, UniProt Q9BXC0). As to the kind of experiment: Agonist activity at human GPR81 overexpressed in CHO cells assessed as inhibition of forskolin-stimulated cAMP production. It counts as functional, cell-based.
T1 sequence (Q9BXC0 whole entry): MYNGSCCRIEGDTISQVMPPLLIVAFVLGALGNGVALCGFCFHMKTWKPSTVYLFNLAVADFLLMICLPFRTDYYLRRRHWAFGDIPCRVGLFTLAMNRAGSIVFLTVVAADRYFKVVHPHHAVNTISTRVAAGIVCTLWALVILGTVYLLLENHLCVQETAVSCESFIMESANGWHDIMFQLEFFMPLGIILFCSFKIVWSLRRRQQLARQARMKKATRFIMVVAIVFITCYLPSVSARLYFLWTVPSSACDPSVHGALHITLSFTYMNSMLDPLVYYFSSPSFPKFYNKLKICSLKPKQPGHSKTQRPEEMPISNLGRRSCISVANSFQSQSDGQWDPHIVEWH
The target in data set [3] is T1, Hydroxycarboxylic acid receptor 1. As to the kind of experiment: Agonist activity at human GPR81 overexpressed in CHO cells assessed as inhibition of forskolin-stimulated cAMP production at 10 uM relative to control. It counts as functional, cell-based.
The target of data set [4] is Hydroxycarboxylic acid receptor 2 (Homo sapiens, UniProt Q8TDS4). Briefly: Agonist activity at human GPR109A receptor.
Hydroxycarboxylic acid receptor 2, sequence (Q8TDS4 whole entry): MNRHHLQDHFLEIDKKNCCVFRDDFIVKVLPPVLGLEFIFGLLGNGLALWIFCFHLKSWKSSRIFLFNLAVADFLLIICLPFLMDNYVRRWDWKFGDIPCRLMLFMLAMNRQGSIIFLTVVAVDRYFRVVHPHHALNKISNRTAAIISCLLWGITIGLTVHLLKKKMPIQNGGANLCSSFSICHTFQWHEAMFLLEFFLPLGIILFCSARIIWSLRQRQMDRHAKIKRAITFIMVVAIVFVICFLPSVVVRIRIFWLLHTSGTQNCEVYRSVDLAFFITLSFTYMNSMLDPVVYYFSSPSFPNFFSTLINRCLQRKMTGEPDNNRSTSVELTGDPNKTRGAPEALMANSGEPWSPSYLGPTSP
The nature of data set [5]: Solubility of compound. The data set is classed as physicochemical.
The target in data set [6] is T2, Protein Gpr81 (Rattus norvegicus) (UniProt G3V906).
T2 sequence (whole entry): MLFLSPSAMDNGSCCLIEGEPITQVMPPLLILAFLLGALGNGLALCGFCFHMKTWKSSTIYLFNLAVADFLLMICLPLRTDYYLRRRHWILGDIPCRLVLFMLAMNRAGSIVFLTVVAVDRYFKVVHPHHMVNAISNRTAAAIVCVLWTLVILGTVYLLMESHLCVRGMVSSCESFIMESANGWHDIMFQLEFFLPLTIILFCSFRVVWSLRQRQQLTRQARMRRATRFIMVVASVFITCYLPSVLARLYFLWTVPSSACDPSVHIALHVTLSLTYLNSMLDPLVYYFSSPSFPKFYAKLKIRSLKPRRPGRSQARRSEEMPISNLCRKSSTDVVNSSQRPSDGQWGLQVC
Briefly: Agonist activity at rat GPR81 overexpressed in HEK293 cells by [35S]GTPgammaS binding assay. The data set is classed as cell-based.

For data set [7], the target named is Growth hormone secretagogue receptor type 1 (Homo sapiens, UniProt Q92847). As to the kind of experiment: Displacement of [125I]-ghrelin from human GHS-R1a stably expressed in HEK cell membrane measured after 60 mins by gamma counter method. The data set is classed as cell membranes.
Growth hormone secretagogue receptor type 1, sequence (Q92847 whole entry): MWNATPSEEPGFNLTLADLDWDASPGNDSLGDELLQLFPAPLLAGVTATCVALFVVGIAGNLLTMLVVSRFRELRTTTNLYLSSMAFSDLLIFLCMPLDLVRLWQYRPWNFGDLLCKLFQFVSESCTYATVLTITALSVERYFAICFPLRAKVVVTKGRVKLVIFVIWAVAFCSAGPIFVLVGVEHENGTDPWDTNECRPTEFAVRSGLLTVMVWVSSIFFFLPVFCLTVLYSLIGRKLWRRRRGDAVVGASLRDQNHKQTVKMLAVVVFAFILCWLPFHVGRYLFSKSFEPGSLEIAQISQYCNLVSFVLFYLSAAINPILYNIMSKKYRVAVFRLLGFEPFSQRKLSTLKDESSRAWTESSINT
Another data set is filed under the species Homo sapiens. As to the kind of experiment: Selectivity index, ratio of IC50 for displacement of [125I]-ghrelin from human GHS-R1a stably expressed in HEK cell membrane measured after 60 mins by gamma counter method to EC50 for agonist activity at human GPR81 overexpressed in CHO cells assessed as inhibition of forskolin-stimulated cAMP production. It counts as cell membranes.

In the case of `CN1CCC(S(=O)(=O)c2ccc3nc(NC(=O)NC(=O)c4cc(-n5cccn5)c(F)cc4Cl)sc3c2)CC1`, the logD in data set [1] came out at 2.4. Besides, in data set [2], the negative-log EC50 (pEC50) is 5.44. Further, the Efficacy in data set [3] was 70%.
On to `CCOc1cc(Cl)c(C(=O)NC(=O)Nc2nc3ccc(CN4CCN(C)CC4)cc3s2)cc1N1CCOCC1`, for which the pEC50 was 5.67 in data set [4] and 7.13 in data set [2]. In data set [1], this molecule returned a logD of 2.9. The same molecule showed a solubility in data set [5] of 4 µM (≈ 2.29 µg/mL). Also, the result in data set [6] was Active. In addition, the pIC50 in data set [7] is 6.02.
Consider `CCOc1cc(Cl)c(C(=O)NC(=O)Nc2nc3ccc(S(=O)(=O)C4CCN(C)CC4)cc3s2)cc1-n1cccn1`, for which the pEC50 in data set [4] was 6.91; in data set [2] it was 7.64. The molecule further yielded a pH-dependent lipophilicity (logD) in data set [1] of 3. Besides, the solubility in data set [5] amounted to 0.2 µM (≈ 0.121 µg/mL). Also, the outcome in data set [6] was Active. This molecule had a negative-log IC50 (pIC50) in data set [7] of 8.10.
`CN1CCC(S(=O)(=O)c2ccc3nc(NC(=O)NC(=O)c4cc(-n5cccn5)ccc4Cl)sc3c2)CC1` gave a logD in data set [1] of 2.3. Further, the pEC50 in data set [2] is 5.15. In data set [3], the Efficacy came out at 74%.
Consider `Cc1cc(Cl)c(C(=O)NC(=O)Nc2nc3ccc(S(=O)(=O)C4CCN(C)CC4)cc3s2)cc1-n1cccn1`, for which the logD in data set [1] is 2.5. Besides, the negative logarithm of the EC50 (pEC50) in data set [2] is 5.21. Moreover, in data set [3], the Efficacy came to 70%.
`CCOc1ccc(C(=O)NC(=O)Nc2nc3ccc(CN4CCN(C)CC4)cc3s2)cc1N1CCOCC1` gave a logD in data set [1] of 3. In data set [2], the negative logarithm of the EC50 (pEC50) is 6.13. Moreover, the Efficacy in data set [3] is 47%.
For the molecule `CCOc1cc(Cl)c(C(=O)Nc2nc3ccc(S(=O)(=O)CCCN4CCN(C)CC4)cc3s2)cc1N1CCO[C@H](C)C1`, the pEC50 is 5.85 in data set [4] and 6.80 in data set [2]. Moreover, in data set [1], the log distribution coefficient (logD) turned out to be 2.4. The Ratio IC50/EC50 in the data set filed under Homo sapiens is over 80. In addition, the concentration in solution in data set [5] (solubility) was 470 µM (≈ 299 µg/mL). For the same molecule, the pIC50 in data set [7] was 4.68.
`CCOc1cc(Cl)c(C(=O)Nc2nc3ccc(S(=O)(=O)C4CCN(C)CC4)cc3s2)cc1N1CCOCC1`: the negative-log EC50 (pEC50) in data set [4] was under 5.05; in data set [2], 6.13. Further, in data set [1], the logD was 2.5. For the same molecule, in the data set listed under Homo sapiens, the Ratio IC50/EC50 is over 80. The concentration in solution in data set [5] (solubility) was 1 µM (≈ 0.579 µg/mL). The molecule further gave a negative logarithm of the IC50 (pIC50) in data set [7] of under 4.30.
